Results taken from paper PMC6163981, “Novel and Selective Rhipicephalus microplus Triosephosphate Isomerase Inhibitors with Acaricidal Activity” (Veterinary Sciences, 2018).
Values joined by “and” are separate entries in the source; they are usually repeats but may differ in a detail not shown here. Equal values may be shown once. “Also recorded” adds a separate entry of the source. Read-outs that look alike come from different tables or passages of the source. Each block holds one compound with its values, some of them ahead of it.

Legend:
[1] = target: RmTIM (TIM from R. microplus) (Rhipicephalus microplus, UniProt A8B3A8); assay: biochemical
Chain of RmTIM (TIM from R. microplus) (A8B3A8 1-249): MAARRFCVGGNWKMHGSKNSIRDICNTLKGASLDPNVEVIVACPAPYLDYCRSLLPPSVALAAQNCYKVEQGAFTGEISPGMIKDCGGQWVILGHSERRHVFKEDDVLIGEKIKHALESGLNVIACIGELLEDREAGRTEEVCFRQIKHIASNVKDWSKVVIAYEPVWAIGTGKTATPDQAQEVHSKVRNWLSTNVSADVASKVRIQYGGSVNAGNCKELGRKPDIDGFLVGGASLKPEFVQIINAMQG

BME26 embryonic cells [2] = assay: MTT viability assay on BME26 embryonic cells; format: cell-based, Rhipicephalus microplus; conditions: for IC50 / viability at 100 µM: Rhipicephalus microplus, 24 h, BME26, MTT; for IC50: read-out: IC50 in BME26 cells (In vitro anti-R. microplus); for viability at 100 µM: read-out: cell viability at 100 µM
[3] = target: T1, Homo sapiens TIM (HsTIM, HmTIM [sic] in Table 1) (Homo sapiens, UniProt P60174); assay: Human TIM inhibition (selectivity); format: biochemical
T1 construct: made in house; host or cells: E. coli
T1 sequence (P60174 whole entry): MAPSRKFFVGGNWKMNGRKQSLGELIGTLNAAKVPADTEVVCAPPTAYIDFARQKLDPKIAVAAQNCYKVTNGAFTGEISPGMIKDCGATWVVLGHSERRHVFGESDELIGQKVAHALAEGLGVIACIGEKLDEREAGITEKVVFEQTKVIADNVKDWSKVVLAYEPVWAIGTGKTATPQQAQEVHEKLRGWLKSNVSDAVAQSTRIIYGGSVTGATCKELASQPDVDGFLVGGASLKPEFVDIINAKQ

mice (strain B6D2F1) = conditions: male, B6D2F1, mouse, in vivo
Rabbit TIM (RbTIM) = Rabbit TIM (RbTIM) (Oryctolagus cuniculus, UniProt P00939); assay: Rabbit TIM inhibition (selectivity); format: biochemical
Chain of Rabbit TIM (RbTIM) (P00939 2-249 limits assumed): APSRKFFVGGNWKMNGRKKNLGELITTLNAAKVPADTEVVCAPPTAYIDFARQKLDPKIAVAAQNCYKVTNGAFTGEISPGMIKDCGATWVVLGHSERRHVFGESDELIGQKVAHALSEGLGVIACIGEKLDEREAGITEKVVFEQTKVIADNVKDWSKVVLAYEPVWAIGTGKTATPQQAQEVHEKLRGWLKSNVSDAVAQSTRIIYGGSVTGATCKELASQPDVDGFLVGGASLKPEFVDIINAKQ

[4] = test system: mammalian TIMs (rabbit and human); assay: Mammalian TIM inhibition (rabbit and human, summarised); format: biochemical; conditions: 100 µM
[5] = design: method as in PMID 22803666; conditions: previous work; cited from earlier work
[6] = test system: Trypanosoma cruzi TIM (TcTIM); conditions: previously obtained; cited from earlier work
mice = conditions: cited from earlier work
BME26 embryonic cells [7] = test system: BME26 embryonic cells; design: method as in PMID 24956999, PMID 22036897; conditions: widely used acaricide, comparison; cited from earlier work

Compound: CC1(C)[N+]([O-])=c2ccc(/C=C/c3ccccc3)cc2=[N+]1[O-] [Compound 39]
IC50 ([1]; read-out: IC50 (µM) RmTIM): 50 to 100 µM

Compound: O=C1C(=Cc2ccc([N+](=O)[O-])cc2)C(=O)N(Cc2ccccc2)S(=O)(=O)N1Cc1ccccc1 [Compound 50]
IC50 (BME26 embryonic cells [2]): 71 ± 8 µM
viability at 100 µM (BME26 embryonic cells [2]; 100 µM): 42%
inhibition at 100 µM [3]: 0%
Toxicology: LD50 (mice (strain B6D2F1)): 3 mmol/kg body weight in mice
inhibition at 100 µM (Rabbit TIM (RbTIM)): 0%
IC50 ([1]; read-out: IC50 (µM) RmTIM): ~50 µM and 50 µM
Mammalian Triosephosphate isomerase inhibition [4]: did not affect

Compound: O=S(=O)(NCCc1ccccc1)NCCc1ccccc1 [Compound 62]
IC50 ([1]; IC50 (µM) RmTIM): 50 to 100 µM

Compound: Clc1ccc(-c2csc(N/N=C/C=C/c3ccco3)n2)cc1 [Compound 81]
IC50 ([1]; read-out: IC50 (µM) RmTIM): 50 to 100 µM

Compound: O=C(N/N=C/C=C/c1ccc([N+](=O)[O-])o1)Nc1ccc2ccccc2c1 [Compound 98]
IC50 (BME26 embryonic cells [2]): 67 ± 4 µM
viability at 100 µM (BME26 embryonic cells [2]; 100 µM): 40%
inhibition at 100 µM [3]: 14%
Toxicology: LD50 (mice (strain B6D2F1)): 3 mmol/kg body weight in mice
inhibition at 100 µM (Rabbit TIM (RbTIM)): 21%
IC50 ([1]; read-out: IC50 (µM) RmTIM): ~50 µM and 50 µM
Mammalian Triosephosphate isomerase inhibition [4]: did not affect

Compound: Cc1c(C=O)no[n+]1[O-] [Compound 136]
IC50 ([1]; read-out: IC50 (µM) RmTIM): ~100 µM

Compound: Cc1ccc(-c2nsc(=O)[nH]2)cc1 [Compound 161]
effect on BME26 cells (BME26 embryonic cells [2]; MTT, 100 µM): did not have any effect; also recorded: no activity
viability at 100 µM (BME26 embryonic cells [2]; 100 µM): 100%
inhibition at 100 µM [3]: 28%
% Inhibition at 100 µM HmTIM ([3]; 100 µM): slight inhibitory activity
penetration of biological membranes [5]: cannot penetrate biological membranes
IC50 [6]: 4 µM
inhibition at 100 µM (Rabbit TIM (RbTIM)): 0%
IC50 ([1]; read-out: IC50 (µM) RmTIM): 25 ± 3 µM

Compound: C=CCNC(=S)N/N=C/c1ccc2c(c1)[n+]([O-])c(C)c(C)[n+]2[O-] [Compound 179]
IC50 ([1]; read-out: IC50 (µM) RmTIM): ~100 µM

Compound: N#Cc1nn(-c2c(Cl)cc(C(F)(F)F)cc2Cl)c(N)c1[S+]([O-])C(F)(F)F (centres unmarked) [fipronil]
acute oral LD50 (mice): 91 mg/kg

Compound: ivermectin
IC50 (BME26 embryonic cells [7]): 3 µM

Next, values leading:

IC50 ([1]; read-out: IC50 (µM) RmTIM): 50 to 100 µM
Compound: O=C1C(=Cc2ccc([N+](=O)[O-])o2)C(=O)N(Cc2ccccc2)S(=O)(=O)N1Cc1ccccc1 [Compound 52]

IC50 ([1]; read-out: IC50 (µM) RmTIM): ~100 µM
Compound: C=CCn1c(-c2ccc(OC)cc2)cs/c1=N/N=C/c1ccc([N+](=O)[O-])s1 [Compound 70]

IC50 ([1]; read-out: IC50 (µM) RmTIM): ~100 µM
Compound: O=[N+]([O-])c1ccc(/C=C/C=N/NC(=S)Nc2ccccc2)o1 [Compound 99]

IC50 ([1]; read-out: IC50 (µM) RmTIM): ~100 µM
Compound: O=C(N/N=C/c1c(-c2ccccc2)no[n+]1[O-])c1cnn(-c2ccccc2)c1 [Compound 134]

IC50 ([1]; read-out: IC50 (µM) RmTIM): ~100 µM
Compound: Cc1c(CNc2ccc3ccccc3c2)no[n+]1[O-] [Compound 146]

IC50 ([1]; read-out: IC50 (µM) RmTIM): 50 to 100 µM
Compound: Cc1ccc(/C=C/C=N/N2CCN(C/C=C/c3ccccc3)CC2)o1 [Compound 222]
